Results from ChEMBL document CHEMBL2074478, “Cisplatin induces renal expression of P-glycoprotein and canalicular multispecific organic anion transporter” (Am J Physiol, 1999).

Legend:
[1] = molecular target: ATP-binding cassette sub-family C member 2 (Rattus norvegicus, UniProt Q63120); experiment: (§1) TP_TRANSPORTER: Western in vivo, kidney of SD rat; assay type: functional, organism-based, Sprague-Dawley
[2] = molecular target: Multidrug resistance protein 1a (Rattus norvegicus) (UniProt Q6PSM0); experiment: TP_TRANSPORTER: Western in vivo, intestine of SD rat; assay type: functional, organism-based; settings: Sprague-Dawley
[3] = molecular target: Multidrug resistance protein 1a (Rattus norvegicus) (UniProt Q6PSM0); experiment: TP_TRANSPORTER: Western in vivo, liver of SD rat; assay type: functional, organism-based; settings: Sprague-Dawley
[4] = molecular target: Multidrug resistance protein 1a (Rattus norvegicus) (UniProt Q6PSM0); experiment: as §1; assay type: functional, organism-based; settings: Sprague-Dawley

Chain of ATP-binding cassette sub-family C member 2 (Q63120 whole entry): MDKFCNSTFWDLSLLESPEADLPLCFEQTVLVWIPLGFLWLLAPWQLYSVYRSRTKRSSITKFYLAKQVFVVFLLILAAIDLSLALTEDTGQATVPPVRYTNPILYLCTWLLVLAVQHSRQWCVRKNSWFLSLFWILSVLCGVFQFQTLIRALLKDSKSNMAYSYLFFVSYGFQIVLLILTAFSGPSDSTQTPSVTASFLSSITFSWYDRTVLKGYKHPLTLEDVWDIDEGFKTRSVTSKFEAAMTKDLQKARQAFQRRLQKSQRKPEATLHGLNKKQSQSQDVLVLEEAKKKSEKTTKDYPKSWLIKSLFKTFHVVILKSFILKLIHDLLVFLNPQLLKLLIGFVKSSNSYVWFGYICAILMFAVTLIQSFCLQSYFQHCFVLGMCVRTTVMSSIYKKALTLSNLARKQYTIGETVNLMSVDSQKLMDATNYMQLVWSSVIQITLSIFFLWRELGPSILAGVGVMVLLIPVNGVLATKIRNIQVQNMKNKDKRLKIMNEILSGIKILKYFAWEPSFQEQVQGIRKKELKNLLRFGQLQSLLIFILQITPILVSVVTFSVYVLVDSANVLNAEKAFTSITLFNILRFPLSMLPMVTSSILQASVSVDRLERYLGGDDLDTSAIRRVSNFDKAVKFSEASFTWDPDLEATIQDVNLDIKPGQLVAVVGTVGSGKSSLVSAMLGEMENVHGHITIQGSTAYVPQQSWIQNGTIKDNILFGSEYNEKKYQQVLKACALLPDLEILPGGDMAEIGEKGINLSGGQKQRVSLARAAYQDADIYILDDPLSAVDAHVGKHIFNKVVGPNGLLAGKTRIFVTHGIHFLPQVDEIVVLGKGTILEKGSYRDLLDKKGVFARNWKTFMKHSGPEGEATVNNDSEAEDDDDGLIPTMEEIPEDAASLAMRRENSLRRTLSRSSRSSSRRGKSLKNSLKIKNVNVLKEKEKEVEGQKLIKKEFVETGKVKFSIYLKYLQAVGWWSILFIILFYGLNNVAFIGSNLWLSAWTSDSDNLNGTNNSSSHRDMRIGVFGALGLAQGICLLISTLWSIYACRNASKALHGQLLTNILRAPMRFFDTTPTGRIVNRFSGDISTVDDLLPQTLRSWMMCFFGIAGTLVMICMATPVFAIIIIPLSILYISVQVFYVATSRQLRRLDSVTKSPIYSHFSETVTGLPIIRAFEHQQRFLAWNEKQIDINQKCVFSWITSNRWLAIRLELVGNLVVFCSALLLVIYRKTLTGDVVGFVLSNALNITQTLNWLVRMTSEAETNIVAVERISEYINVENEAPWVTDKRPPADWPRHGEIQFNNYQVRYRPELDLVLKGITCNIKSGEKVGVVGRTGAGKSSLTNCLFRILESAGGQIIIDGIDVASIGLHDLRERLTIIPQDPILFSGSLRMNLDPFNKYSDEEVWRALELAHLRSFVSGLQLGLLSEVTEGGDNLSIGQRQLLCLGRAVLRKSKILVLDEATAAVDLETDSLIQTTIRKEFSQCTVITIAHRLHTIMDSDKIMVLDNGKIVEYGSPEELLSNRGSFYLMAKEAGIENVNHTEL

Activity [1]	Activity [2]	Activity [3]	Activity [4]	Sequence
inducer [+]	–	–	–	CISPLATIN [listing 1 of 2 here]
–	inducer [+]	inducer [+]	inducer [+]	CISPLATIN [listing 2 of 2 here]
